Among the data in PubChem BioAssay (NCI) are TGI and GI50 values, retold here.

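Following 48 hours of exposure in 96-well plates, responses at five concentrations were used to interpolate endpoints linearly. GI50 = concentration required for 50% inhibition of growth. TGI marks complete inhibition of growth.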

The first experiment concerns ACHN renal. Briefly: growth of human tumour cells (NCI), 48 h.
`O=C1NC(=O)C2C(=O)NC(=O)C1C2(c1ccccc1)c1ccc(Cl)cc1` (centres undefined) returned a TGI greater than 100 µM.

`O=C(Nc1ccccc1[N+](=O)[O-])c1ccccc1` registered a TGI greater than 100 µM.

`O=C1Oc2cc3c(c4cccc1c24)OCN(c1ccc(Cl)cc1)C3` registered a TGI greater than 100 µM.

As for `O=C1CSC(N2CCN(c3cccc(Cl)c3)CC2)=N1`, the GI50 was greater than 100 µM and the TGI was greater than 100 µM.

`Cc1cc(C)nc(NS(=O)(=O)c2ccc(NC(=O)c3cccc4c(=O)c5ccccc5[nH]c34)cc2)n1` displayed a TGI of 49.2 µM.

Take `CCN1CCN(c2nc(NCCNc3ccnc4cc(Cl)ccc34)c3ccccc3n2)CC1`: the GI50 is 1.93 µM and the TGI worked out at 3.89 µM.

With `COc1ccccc1NC(=O)c1ccc(/C=C/C(=O)c2nccn2C)cc1`, the GI50 was 0.532 µM and the TGI was found to be 1.09 µM.

With `CCCCCCCCCCCCCCC1OC(=O)c2ccccc21` (centres undefined), the TGI was greater than 100 µM.

The compound `CN(C)CCNC(=O)c1cccc2nc3c(Cl)cccc3nc12` displayed a TGI of 30.5 µM.

Consider `Cn1cc(C2=C(c3ccc(OC[C@@H](O)CO)cc3)C(=O)NC2=O)c2ccccc21`, for which the GI50 is greater than 25 µM and the TGI is greater than 25 µM.

In the case of `O=C1c2ccccc2-c2c1c1cc3c(cc1c(=O)n2CCCCl)OCO3`, the GI50 is 24.5 µM and the TGI is 98.7 µM.

With `CC(C)(C)C1=NC(S)NC(CCC(=O)Nc2ccccc2[N+](=O)[O-])=C1` (centres undefined), the TGI was greater than 100 µM.

Another experiment concerns OVCAR-3 ovarian. Kind of experiment: growth of human tumour cells (NCI), 48 h.
The compound `C1CN2N3CCCC23C1` (centres undefined) yielded a TGI greater than 100 µM.

For the compound `Cc1cccc(C(C)(C)C)c1NC(=O)C(=O)Cc1nc2ccccc2s1`, the TGI is greater than 100 µM.

Compound `CC(=O)OCCc1cccnc1/C=N/O` displayed a TGI greater than 100 µM.

Take `CN(C)c1ccc(/C=C2\C[N+](C)(C)C/C(=C\c3ccc(N(C)C)cc3)C2=O)cc1`: the TGI is 17.2 µM.

In the case of `O=C1CC[C@H]2CNC(=O)C[C@H]2C1`, the TGI is greater than 100 µM.

In turn, `C#CC(C)(C)Oc1cc(O)c2c(=O)c3ccccc3n(C)c2c1` returned a TGI greater than 100 µM.

As to `CN1CCCNCCN(CCc2ccccn2)CCCN(C)CC1`, the TGI was greater than 100 µM.

As to `C[C@]12CCC(=O)C=C1CC[C@@H]1C2CC[C@]2(C)NC(=O)C(C#N)CC12` (some centres undefined), the TGI is greater than 100 µM.

`COC(=O)c1c(OC)cccc1C(=O)O`: the TGI was greater than 100 µM.

Compound `O=[N+]([O-])c1ccc(NSc2ccccc2)cc1` came in with a TGI greater than 100 µM.

Regarding `Cc1c(C(=O)/C=C/c2cccc3ccccc23)[n+](=O)c2ccccc2n1[O-]`, the TGI came out at 22.7 µM.

Compound `CC(=O)/C=C/c1cccc(N=S)c1` came in with a TGI of 48.4 µM.

`O=C1NC(=O)C2C(=O)NC(=O)C1C2(c1ccccc1)c1ccc(Cl)cc1` (centres undefined) showed a TGI greater than 100 µM.

Consider `O=C(Nc1ccccc1[N+](=O)[O-])c1ccccc1`, for which the TGI is greater than 100 µM.

In the case of `O=C1Oc2cc3c(c4cccc1c24)OCN(c1ccc(Cl)cc1)C3`, the TGI was greater than 57.4 µM.

As to `COc1cc2c(cc1OC)C1C=NC(C(=O)O)(C2)c2ccccc21` (centres undefined), the TGI is greater than 100 µM.

For the compound `O=C1CSC(N2CCN(c3cccc(Cl)c3)CC2)=N1`, the GI50 is greater than 100 µM and the TGI was greater than 100 µM.

Regarding `Cc1cc(C)nc(NS(=O)(=O)c2ccc(NC(=O)c3cccc4c(=O)c5ccccc5[nH]c34)cc2)n1`, the TGI came out at 37.6 µM.

Turning to `CCN1CCN(c2nc(NCCNc3ccnc4cc(Cl)ccc34)c3ccccc3n2)CC1`, the GI50 was 1.87 µM and the TGI was found to be 4.2 µM.

As for `COc1ccccc1NC(=O)c1ccc(/C=C/C(=O)c2nccn2C)cc1`, the GI50 was 0.459 µM and the TGI is 0.988 µM.

Compound `CCCCCCCCCCCCCCC1OC(=O)c2ccccc21` (centres undefined) returned a TGI greater than 100 µM.

Take `CN(C)CCNC(=O)c1cccc2nc3c(Cl)cccc3nc12`: the TGI was greater than 63.6 µM.

Take `Cn1cc(C2=C(c3ccc(OC[C@@H](O)CO)cc3)C(=O)NC2=O)c2ccccc21`: the GI50 is greater than 25 µM and the TGI was greater than 25 µM.

For the compound `O=C1c2ccccc2-c2c1c1cc3c(cc1c(=O)n2CCCCl)OCO3`, the GI50 is 11.4 µM and the TGI turned out to be 32 µM.

Regarding `CC(C)(C)C1=NC(S)NC(CCC(=O)Nc2ccccc2[N+](=O)[O-])=C1` (centres undefined), the TGI was greater than 100 µM.

Another experiment relates to HT29 colon. Kind of experiment: growth of human tumour cells (NCI), 48 h.
Consider `C1CN2N3CCCC23C1` (centres undefined), for which the TGI was greater than 100 µM.

In turn, `Cc1cccc(C(C)(C)C)c1NC(=O)C(=O)Cc1nc2ccccc2s1` displayed a TGI greater than 100 µM.

Compound `CC(=O)OCCc1cccnc1/C=N/O` yielded a TGI greater than 100 µM.

Turning to `CN(C)c1ccc(/C=C2\C[N+](C)(C)C/C(=C\c3ccc(N(C)C)cc3)C2=O)cc1`, the TGI stood at 24 µM.

`O=C1CC[C@H]2CNC(=O)C[C@H]2C1` gave a TGI greater than 100 µM.

For the compound `C#CC(C)(C)Oc1cc(O)c2c(=O)c3ccccc3n(C)c2c1`, the TGI is greater than 100 µM.

`CN1CCCNCCN(CCc2ccccn2)CCCN(C)CC1` registered a TGI greater than 100 µM.

Take `C[C@]12CCC(=O)C=C1CC[C@@H]1C2CC[C@]2(C)NC(=O)C(C#N)CC12` (some centres undefined): the TGI is greater than 100 µM.

Take `COC(=O)c1c(OC)cccc1C(=O)O`: the TGI was greater than 100 µM.

As to `Cc1c(C(=O)/C=C/c2cccc3ccccc23)[n+](=O)c2ccccc2n1[O-]`, the TGI is 24.8 µM.

Compound `CC(=O)/C=C/c1cccc(N=S)c1` showed a TGI of 19.5 µM.

As for `O=C1NC(=O)C2C(=O)NC(=O)C1C2(c1ccccc1)c1ccc(Cl)cc1` (centres undefined), the TGI was greater than 100 µM.

With `O=C(Nc1ccccc1[N+](=O)[O-])c1ccccc1`, the TGI was greater than 100 µM.

Take `O=C1Oc2cc3c(c4cccc1c24)OCN(c1ccc(Cl)cc1)C3`: the TGI is greater than 100 µM.

`COc1cc2c(cc1OC)C1C=NC(C(=O)O)(C2)c2ccccc21` (centres undefined) yielded a TGI greater than 100 µM.

Consider `O=C1CSC(N2CCN(c3cccc(Cl)c3)CC2)=N1`, for which the GI50 was 46 µM and the TGI was greater than 100 µM.

In the case of `Cc1cc(C)nc(NS(=O)(=O)c2ccc(NC(=O)c3cccc4c(=O)c5ccccc5[nH]c34)cc2)n1`, the TGI worked out at 43.9 µM.

With `CCN1CCN(c2nc(NCCNc3ccnc4cc(Cl)ccc34)c3ccccc3n2)CC1`, the GI50 was 0.793 µM and the TGI was 7.47 µM.

Take `COc1ccccc1NC(=O)c1ccc(/C=C/C(=O)c2nccn2C)cc1`: the GI50 is 0.644 µM and the TGI was determined as 1.78 µM.
